This is an account of results in publication PMC7369637, “Inhibition of Resistance-Refractory P. falciparum Kinase PKG Delivers Prophylactic, Blood Stage, and Transmission-Blocking Antiplasmodial Activity” (Cell Chemical Biology, 2020).

The test system of test [1] is B-raf kinase. The settings on record: ref Gamo et al., 2010; cited from earlier work.
Test [2] concerns Pf Dd2-B2 ABS parasites. As to the kind of experiment: 72-h asexual blood stage (ABS) growth inhibition assay, Dd2-B2. The test is classed as cell-based, Plasmodium falciparum. To be noted: Dd2-B2 wild-type, 72 h; read-out: Mean IC50, 72 h ABS activity. On the procedure:
(§1) Synchronicity was achieved using three rounds of sorbitol treatment on early rings, spaced 48 h apart, followed by magnetic purification of segmented schizonts following the final sorbitol treatment. Parasites were highly synchronous to within a 3 h window of development. Assays were repeated on at least three independent occasions (each with technical duplicates) and statistical significance was assessed using Mann Whitney U tests.

Test [3] deals with sel. Dd2-B2 TKL3T1268R. The test is described as follows: 72-h ABS assay, MMV030084-selected line. The test is classed as cell-based, Plasmodium falciparum. The protocol: as §1
The resulting MMV030084-resistant parasites were cloned by limiting dilution ([Baker et al., 2017]) to obtain genetically homogenous cultures for further phenotyping and whole-genome sequencing. A second round of […]. […] Drug susceptibility of resistant lines was assessed using a 72 h ABS assay as described above, and a Mann Whitney U test was applied to assess statistically significant differences.

Usually IC50 stands for the point on the concentration scale where inhibition reaches its midpoint. Regarding `CC(C)(CN)c1cc(-c2ccc(Cl)c(O)c2)c(-c2ccncc2)o1.Cl` [TCMDC-141334], in test [1], the “Reported kinase inhibitor activity” value was “B-raf kinase inhibitor”. In addition, the IC50 in test [2] stood at 277 nM; in test [3], 599 nM.
